Earlier results in US20070161636A1, “Method of analyzing physiological function of target substance” (priority 2003, published 2007).
Where two headings read alike, the source gives them in different places.

SMILES: O=C1OC2(c3ccccc31)c1cc(Br)c(O)c(Br)c1Oc1c2cc(Br)c(O)c1Br [eosin, tetrabromofluorescein]
- maximum absorption (max λ) (in ethanol): 523 nm
- maximum absorption (max λ) (in water): 517 nm
